# Measured values published in US20080124404A1 (priority 2006, published 2008).
# “Also recorded” adds a separate entry of the source.
# B1: OM: cytokine oncostatin M, known activator of the LDLR promoter (protein, UniProt P13725 26-221, looked up)
# Oncostatin-M: AAIGSCSKEYRVLLGQLQKQTDLMQDTSRLLDPYIRIQGLDVPKLREHCRERPGAFPSEETLRGLGRRGFLQTLNATLGCVLHRLADLEQRLPKAQDLERSGLNIEDLEKLQMARPNILGLRNNIYCMAQLLDNSDTAEPTKAGRGASQPPTPTPASDAFQRKLEGCRFLHGYHRFMHSVGRVFSKWGESPNRSRR
# Key:
# [1] = target: MDR1 transporter (pgp-170) (Homo sapiens, UniProt P08183)
# Chain of MDR1 transporter (pgp-170) (P08183 whole entry): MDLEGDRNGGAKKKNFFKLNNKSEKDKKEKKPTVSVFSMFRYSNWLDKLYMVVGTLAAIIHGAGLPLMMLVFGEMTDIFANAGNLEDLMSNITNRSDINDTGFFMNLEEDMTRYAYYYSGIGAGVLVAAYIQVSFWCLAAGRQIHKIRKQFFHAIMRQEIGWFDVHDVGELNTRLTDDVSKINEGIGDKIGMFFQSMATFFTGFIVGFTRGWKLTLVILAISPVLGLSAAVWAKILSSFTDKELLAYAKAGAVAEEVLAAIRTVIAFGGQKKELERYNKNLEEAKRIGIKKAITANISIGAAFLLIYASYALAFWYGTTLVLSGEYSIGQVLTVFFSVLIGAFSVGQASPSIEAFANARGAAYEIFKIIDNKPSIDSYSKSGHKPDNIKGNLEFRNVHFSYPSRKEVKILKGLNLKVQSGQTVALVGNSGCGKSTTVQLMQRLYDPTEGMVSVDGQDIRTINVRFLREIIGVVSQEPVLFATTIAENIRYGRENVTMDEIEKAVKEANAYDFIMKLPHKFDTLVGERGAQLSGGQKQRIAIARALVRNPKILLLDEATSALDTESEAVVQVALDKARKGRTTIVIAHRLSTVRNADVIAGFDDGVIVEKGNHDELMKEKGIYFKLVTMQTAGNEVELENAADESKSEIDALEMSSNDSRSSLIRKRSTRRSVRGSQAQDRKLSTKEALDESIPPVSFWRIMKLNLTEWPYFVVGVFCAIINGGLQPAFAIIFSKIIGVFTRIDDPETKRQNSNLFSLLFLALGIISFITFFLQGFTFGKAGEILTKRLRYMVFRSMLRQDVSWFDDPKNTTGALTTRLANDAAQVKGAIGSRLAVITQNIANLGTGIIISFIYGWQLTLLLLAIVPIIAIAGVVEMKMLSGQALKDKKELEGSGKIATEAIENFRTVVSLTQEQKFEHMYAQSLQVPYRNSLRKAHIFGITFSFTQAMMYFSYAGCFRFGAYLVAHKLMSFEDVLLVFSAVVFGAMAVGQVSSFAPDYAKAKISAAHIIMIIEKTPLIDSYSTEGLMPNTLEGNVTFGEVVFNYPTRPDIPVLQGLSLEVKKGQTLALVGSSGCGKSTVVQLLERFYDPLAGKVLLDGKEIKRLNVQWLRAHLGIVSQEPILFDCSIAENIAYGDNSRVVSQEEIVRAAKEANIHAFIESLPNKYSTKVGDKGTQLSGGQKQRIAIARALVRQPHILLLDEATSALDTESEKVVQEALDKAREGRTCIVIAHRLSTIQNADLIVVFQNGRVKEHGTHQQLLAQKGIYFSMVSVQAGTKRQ
# DNA = details: cited from earlier work
# [2] = Body weight, food intake and adverse effects in HFHC-fed hamsters; format: in vivo, Golden Syrian hamsters; details: 24 day treatment, control animals increased by 10%
# Experimental: . The body weight of hamsters under a HFHC diet in untreated and drug-treated animals at indicated doses were monitored on alternate days (FIG. 11, Panel A). The food intake within 24 h period were measured 2-3 times a week throughout the entire experiment (FIG. 11, Panel B). The data are means±S.D. of 3 cages per group.
# Goldenseal in vivo studies. 42 male Golden Syrian hamsters at 6-8 weeks of age were purchased from the Charles River Laboratories and were housed in cages (3 animals/cage) in an air-conditioned room with a 12 h light cycle. Animals had free access to autoclaved water and food. After one week on a regular rodent chow diet, 36 hamsters were switched to a rodent HFHC diet containing 1.25% cholesterol and 2.2% fat (Product # D12108, Research Diet, Inc., New Brunswick, N.J.) and 6 hamsters were fed a control normal diet containing 0.37% fat and no cholesterol (Product # D12102, Research Diet, Inc.). […]. Berberine Chloride was dissolved in the same vehicle solution. Four hours after the last drug treatment, all animals were sacrificed. Blood samples were collected through cardiac puncture and were analyzed for liver function, kidney function, and blood chemistry at DEXX Laboratories (Palo Alto, Calif.). […] After staining, tissue sections were evaluated by a veterinary pathologist and an experienced scientist independently. […]
# LDLR mRNA [3] = experiment: Real-time quantitative RT-PCR of LDLR mRNA expression in HepG2 cells; format: cell-based, human; details: HepG2, 8 h
# LDLR mRNA [4] = experiment: LDLR mRNA stability under actinomycin D in HepG2 cells (real-time RT-PCR); format: cell-based, human; details: HepG2, actinomycin D 5 μg/ml 30 min before, BBR or CND 15 μg/ml, 4 h
# ERK [5] = experiment: Western blot of phosphorylated ERK in hamster liver; format: in vivo, Golden Syrian hamsters; details: pooled liver samples per treatment group (n=9), HFHC hamsters
# [6] = Measurement of hepatic cholesterol and TG in HFHC-fed hamsters; details: BBR 1.8 mg/animal/d
# HepG2 cells = experiment: BBR uptake assay, intracellular fluorescence by FACS in HepG2 cells; details: HepG2, 5 min incubation, BBR 15 μg/ml
# ERK [7] = experiment: Western blot of phosphorylated ERK in HepG2 cells; format: cell-based, human; details: HepG2, BBR, HDT or CND 20 μg/ml, 2 h
# [8] = 32 hypercholesterolemic patients, oral, 1 g daily, 3 months; cited from earlier work
# LDLR mRNA [9] = experiment: Hepatic LDLR mRNA expression in HFHC-fed hamsters (quantitative real-time RT-PCR); format: in vivo, Golden Syrian hamsters; details: BBR 1.8 mg/d, end of 24-day treatment, n=6, p<0.0001
# LDLR mRNA [10] = experiment: Northern blot analysis of LDLR mRNA expression in HepG2 cells; format: cell-based, human; details: each alkaloid 20 μg/ml, 8 h
# Experimental: . The membrane was stripped and hybridized to a human GAPDH probe. The figure shown is representative of 3 separate studies.
# FIG. 2 illustrates the comparison of dose-dependent effects of CND and BBR on LDLR mRNA expression. HepG2 cells were treated with CND or BBR for 8 h at the indicated concentrations and total RNA was isolated for analysis of LDLR mRNA and GAPDH mRNA expression by northern blot (FIG. 2, Panel A) and real-time PCR assays (FIG. 2, Panel B).
# (§1) Quantitation of LDLR mRNA expression by northern blot analysis and real-time PCR. Isolation of total RNA and analysis of LDLR and GAPDH mRNA by northern blot were performed as previously described (Liu, J et al. J. Lipid Res. 1997, 38: 2035-2048). Differences in hybridization signals of northern blots were quantitated by a PhosphoImager. For quantitative real-time PCR assays, the reverse transcription was conducted with random primers using M-MLV (Promega) at 37° C. for 1 h in a volume of 25 u.1 containing 1 μg of total RNA. Real-time PCR was performed on the cDNA using ABI Prism 7900-HT Sequence Detection System and Universal MasterMix. The human and hamster LDLR and GAPDH Pre-Developed TaqMan Assay Reagents (Applied Biosystems) were used to assess the mRNA expressions in HepG2 and in hamster livers. The MDR1 mRNA expression in HepG2 cells was assayed similarly using the Pre-Developed probes from Applied Biosystems.
# . HPLC/UV-DAD spectroscopic comparisons with standard solutions were used to confirm the presence of BBR, CND, HDT, and HDTN, as well as the absence of PMT. Concentrations of CND and HDT in sample extracts were determined using a single-point calibration and concentrations of BBR in sample extracts were calculated using a standard curve. The identities of BBR, CND, and HDT in extracts were verified further by LC-MS analysis. […]. […]. The results of northern blots were independently confirmed by real-time quantitative RT-PCR (FIG. 1C). […]. […].
# LDLR promoter = LDLR promoter dual luciferase reporter assay (pLDLR234Luc) in HepG2 cells; format: cell-based, human; details: 8 h
# Experimental: FIG. 1E: Analysis of LDLR promoter activity: HepG2 cells were cotransfected with pLDLR234Luc and a normalizing vector pRL-SV40. […] Firefly luciferase and renilla luciferase activities were measured. The data represent normalized LDLR promoter activity.
# Transient transfection and dual luciferase reporter assays. HepG2 cells were transfected with plasmid DNA (100 ng/well) by using FuGENE 6 transfection reagent. The DNA ratio of pLDLR234Luc (Li, C et al. J. Biol. Chem. 1999, 274: 6747-6753) to renilla luciferase reporter pRL-SV40 was 90:10. Twenty h after transfection, medium was changed to 0.5% FBS and drugs were added for 8 h prior to cell lysis. The luciferase activity in cell lysate was measured using Dual Luciferase Assay System obtained from Promega. Triplicate wells were assayed for each transfection condition.
# MDR1 = MDR1 (Homo sapiens, UniProt P08183); experiment: MDR direct dye efflux assay with DiOC2(3) in HepG2 cells; details: HepG2, co-incubation 2 h, CND 15 μg/ml
# Chain of MDR1 (P08183 whole entry): as above
# Experimental: MDR direct dye efflux assay. The MDR Direct Dye Efflux Assay kit (Cat. No. ECM910, Chemicon International Inc., Temecula, Calif.) was used to measure MDR1 activity. HepG2 cells seeded in 6-well culture plates were incubated in efflux buffer (RPMI+2% BSA) and 1 μg/ml of DiOC2(3) in the absence of presence of tested compounds at 37° C. for 2 h.
# liver cells = experiment: Cell survival by MTT (Cell Proliferation Kit I); format: cell-based; details: different concentrations, 18 h
# Experimental: The toxicity of CND and BBR were compared using a cell-based assay. Cell survival rate under drug treatments were determined by Cell Proliferation Kit I (MTT) obtained from Roche Applied Sciences (Indianapolis, Ind.). Cells were seeded in 96-well plates at a density of 5×10^3 cells/well/ in 100 μl medium supplemented with 10% FBS at 37° C. and 5% CO2. After 24 h, cells were incubated with fresh medium containing different concentrations of BBR or CND for 18 h. At the end of drug treatment, 10 μl of MTT labeling reagent per well was added to cells to reach a concentration of 0.5 mg/ml. After a 4 h-reaction, 100 μl of solubilization solution was added to each well and the plate was incubated at 37° C. overnight. The sample spectraphotometrical absorbance was measured by a microplate reader at the wavelength of 550 nm. The reading of sample without drug treatment was defined as 100% survival and readings from drug-treated samples were plotted relative to that value. Quadruple wells were used in each culture condition.
# LDLR mRNA [11] = experiment: LDLR mRNA expression with MDR1 blocked by verapamil or MDR1 siRNA in HepG2 cells (real-time PCR); format: cell-based, human
# Experimental: as §1, with “Isolation of total RNA and analysis of LDLR and GAPDH mRNA by northern blot were performed as previously described (Liu, J et al. J. Lipid Res. 1997, 38: 2035-2048).” left out
# Small interference RNA (siRNA) transfection.
molecule,measurement,setting,value
"COc1ccc2cc3[n+](cc2c1OC)CCc1cc2c(cc1-3)OCO2 [BBR, berberine]",increase in BBR uptake in MDR1 siRNA transfected cells compared to mock transfected cells,"[1]; human, 2 h, 15 μg/ml",49%
same,increase in fluorescent intensity on blocking MDR1 activity with VRMP,"[1]; human, 2 h, 15 μg/ml",49%
same,DNA binding,DNA,strong DNA binding affinities
same,body weights,[2],unchanged
same,increase in LDLR mRNA expression,LDLR mRNA [3]; BBR 20 μg/ml,3 fold
same,LDLR mRNA increase compared to control under transcriptional suppression,LDLR mRNA [4],~2.5 fold
same,levels of phosphorylated ERK in liver,ERK [5],greatly elevated
same,"hepatic TC, % of control",[6],68.7 % of control
same,"hepatic TG, % of control",[6],78.3 % of control
same,increase of intracellular fluorescent intensity,HepG2 cells,~2 fold
same,ERK phosphorylation,ERK [7],attributable to CND and BBR
same,reduction of LDL-c,[8],25%
same,reduction of plasma total cholesterol (TC),[8],29%
same,reduction of triglyceride (TG),[8],35%
same,side effects,[8],without side effects
same,increase in hepatic LDLR mRNA expression,LDLR mRNA [9],3.7 fold
same,LDLR mRNA expression (northern blot),LDLR mRNA [10],strong inducers
"COc1ccc2c(c1OC)CN1CCc3cc4c(cc3[C@H]1C2)OCO4 [CND, canadine]",MDR1 substrate status,[1]; inferred from lack of VRMP effect on activity in HepG2,not a substrate of MDR1
same,LDLR promoter activity,"LDLR promoter; HepG2, BBR or CND 15 μg/ml",not affected at all
same,DNA binding,DNA,does not bind to DNA
same,"dose-dependent effect on LDLR mRNA expression, CND compared with BBR","LDLR mRNA [3]; similar concentration ranges, northern blot and real-time RT-PCR",greater activity than BBR; also recorded: more potent inducer of LDLR expression
same,LDLR mRNA increase compared to control under transcriptional suppression,LDLR mRNA [4],~2.5 fold
same,efflux of DiOC2(3),MDR1,no inhibitory effect
same,ERK phosphorylation,ERK [7],attributable to CND and BBR
same,"toxicity to liver cells (cell survival, MTT), CND compared with BBR",liver cells,less toxic to liver cells than berberine (BBR)
same,fold increase in activity on LDLR mRNA in the presence of VRMP vs absence,"LDLR mRNA [11]; HepG2, 0.6 μM VRMP, 8 h, 3 separate experiments, mean±S.D.",0.82±0.34 fold
same,effect of MDR1 siRNA transfection on activity in elevation of LDLR mRNA level,"LDLR mRNA [11]; HepG2, siRNA 3 days, drug 6 h",not affected
same,LDLR mRNA expression (northern blot),LDLR mRNA [10],strong inducers
"COc1ccc2c(c1OC)C(=O)O[C@@H]2[C@H]1c2cc3c(cc2CCN1C)OCO3 [HDT, β-hydrastine]",LDLR mRNA expression (northern blot),LDLR mRNA [10],no effects
"CN1CCc2cc3c(cc2C1O)OCO3 (stereo not shown) [HDTN, hydrastinine]",LDLR mRNA expression (northern blot),LDLR mRNA [10],no effects
"COc1cc2c(cc1OC)-c1cc3ccc(OC)c(OC)c3c[n+]1CC2 [PMT, palmatine]",DNA binding,DNA,strong DNA binding affinities
same,LDLR mRNA expression (northern blot),LDLR mRNA [10],no regulatory activity on LDLR expression; also recorded: no effects
"COc1ccc(CCN(C)CCCC(C#N)(c2ccc(OC)c(OC)c2)C(C)C)cc1OC (stereo not shown) [VRMP, verapamil]",effect of VRMP itself on the LDLR mRNA level,LDLR mRNA [11],little effect
B1,LDLR promoter activity,"LDLR promoter; HepG2, OM 50 ng/ml",strongly elevated
